Test results as given in patent publication US7344884B2, “Peptides promoting cell adherence, growth and secretion” (Becton, Dickinson and Company, priority 2001, dated 2008).
Entries after “also recorded” stand apart in the source; their conditions may differ. Marks after values point to notes of the source that are not given here.

Key:
[1] = system: PDGF secretion by CHO cells producing rPDGF (CRL 9359/CRL9360); assay: Sandwich ELISA for PDGF in supernatant of CHO cells cultured with test peptide; assay type: cell-based, Chinese Hamster; details: for effect on PDGF expression/accumulation in CHO cells (result in words): library screening
Procedure: To identify peptides in a particular library which positively affected cell expression and secretion, each test peptide was added to a well containing a monolayer of chinese hamster ovary cells. The selected cells were anchorage-dependent CHO cells known to secrete platelet derived growth factor, which were initially grown on the tissue culture surfaces using a media with serum. After the monolayer was established, a chemically defined base media and a single test peptide were added to each well. In the present work, secretion of PDGF was assessed in the presence and absence of peptides from the library by collecting supernatant from each well and performing an ELISA specific for PDGF on the supernatant. The output was the absorbance at 492 nm. Secretion was evaluated in a basal medium rich in amino acids, the necessary vitamins, metals, carbon source and concensus CHO culture factors. PDGF levels were compared to known standards spiked into the media used for culture.
CHO cells are the most widely used animal cell lines in the field of biotechnology for the production of therapeutically important pharmaceuticals (Martin et al, REVIEW, J. of Biotechnology. Progress 1998 14, 807-833). The Chinese Hamster Ovary Cell Lines producing rPDGF (CRL 9359/CRL9360) were obtained from the American Type Culture Collection, 12301 Parklawn Drive, Rockville, Md. 20852. The depositor was Amgen Inc. of Thousand Oaks, Calif. Further details about the cell lines and expressed products can be found in U.S. Pat. No. 5,175,255.
Cells were propagated in DMEM/FI2 media with 5% serum at 37° C. between 5-7% CO2. Passages were limited to 5 prior to seeding and PDGF expression was monitored by western blot and ELISA. Cells were routinely seeded at a density of approximately 1×10^4 cells per 20 ml culture media that was placed in a 250 ml canted neck polystyrene tissue culture treated flask (Becton Dickinson). Cells were cultured to confluency and trypsinized to yield cells for seeding.
1A Media was used as a PDGF negative control (pre-culture), to hydrate the 40 ng PDGF standard (pre-culture), to hydrate test peptides (pre-culture) and to normalize all other test and control PDGF results (post-culture). The 1A media was prepared by adding the following components to a 500 ml bottle of DMEM/F12 (GIBCO cat. No. 11330-032): 2.5 ml of a 10 mM NEAA stock (GIBCO Catalog 11140-050); 10 ml of a 200 mM L-glutamine stock (GIBCO Catalog 25030-08); 1 ml of a 50 mg/ml gentamycin sulfate stock (GIBCO Catalog 15750-0601); 150 μl of a 100 μM methotrexate Stock (Sigma Catalog M8407); 0.5 ml of a 7.5 mg/ml insulin Stock (Sigma I-6634); 50 μl of a 1 mg/ml insulin-like growth factor-stock (Long R3 Factor, Sigma Catalog No. I-1271); 2.5 grams of bovine serum albumin (Sigma Catalog No. A-7906); and 0.5 ml of a 7.5 mg/ml holo-transferrin stock (Sigma T-1283).
The CHO model cell lines are adherent cultures that have never been adapted to a serum-free environment. Accordingly, media containing serum was used to seed wells. Two formats, Overlay (O) and Wash (W) were used to introduce media containing test peptides to adhered cells.
In the O-Format, compounds were gently added on top of the seeding media on the second day. In the O-Format, 9360 cells were seeded at 1,000 cells per 96 well in a 125 μl volume of 1A media with 1.5% serum. 1A media (−serum) containing 12 mM of test peptide was overlaid 2 days later for a final peptide concentration of 6 mM and 0.75% serum. Cell culture supernatant was collected from each test environment on day 10 for later PDGF assay.
In the W-Format, compounds were added on day 2 or 3 after the seeding media was removed. In the W-Format, 9359 and 9360 cells were seeded at 6,000 cells per 96 well in a 250 μl volume of DMEM/F12 with 5% serum. Three days later, the seeding media was removed and replaced with 250 μl of 1A media (−serum) containing 6 mM test peptide. Cell culture supernatant was collected on days 5 and 12 for later PDGF assay. […]

[2] = system: MC3T3 cells; assay: Oxygen biosensor assay of adherence and growth of MC3T3 cells on peptide-coated wells; assay type: cell-based, murine; details: for impact on MC3T3 growth (result in words): peptide or control adsorbed to surface, compared with uncoated surface or controls
Procedure: To identify peptides in a particular library which positively affected cell growth in cell culture, the library was screened in a growth assay. The selected cells were anchorage-dependent MC3T3 cells, which were grown on tissue culture surfaces which had been pre-coated with peptides of the present invention. The screening medium used to evaluate peptides in the library was a low serum medium allowing evaluation of peptide effects with low interference from undefined materials present in the medium. In the present work, growth of MC3T3 cells was assessed in the presence and absence of the peptides in the library which were present in the form of a dried film on a tissue culture substrate. Growth was evaluated in a basal medium rich in amino acids and containing the necessary vitamins, metals and simple carbon source. After an appropriate incubation time, growth of each peptide-supplemented culture is compared to growth of the unsupplemented culture. The extent of growth was evaluated using a Becton Dickinson oxygen sensor to detect oxygen consumption by the cells. The cell number in each well containing a particular peptide was then assessed indirectly with a flurometer which measured fluorescence generated from a fluoroescent dye using band-pass filters of 465 nm for excitation and 590 nm for emission.
Briefly, the oxygen biosensor is based upon the fluoroscence of ruthenium dye which is quenched in the presence of oxygen. The dye is immobilized within an inert but highly permeable silicone matrix located at the bottom of microtiter wells. […] (Wodnicka, M., Guarino, R. D., Hemperly, J. J. Temmins, M. R., Stitt, D. and Pitner, J. B. (2000) J. of Biomolecular Screening 5:141-152)
MC3T3-E1 is a clonal line of murine calvaria-derived osteoblast (establishement of a clonal osteogenic Cell Line from Newborn Mouse Calvaria in Jpn J. Oral Biol 23, 899 (1981)).
MC3T3 cells were maintained in αMEM (GIBCO Catalog No: 12561) supplemented with 2% fetal calf serum (FCS, inactivated) and 100 units or μg/ml of penicillin/streptomycin for one month prior to use. Cells were routinely seeded at a density of approximately 1×10^4 cells per 20 ml culture media which was placed in a 250 ml canted neck polystyrene tissue culture treated flask (Becton Dickinson). Cells were cultured until approximately 2×10^6 cells were obtainable from each flask, which were resuspended in 5 ml of αMEM with 2% FCS for a final cell concentration of about 5×10^4 cells per 150 μl for peptide screening.
For determining the biological effects of library peptides and appropriate controls on MC3T3 cells, cells (5×10^4/150 μl) were grown in an 96 well oxygen sensor plate treated as described below:
Peptides for screening were obtained from either a MDL-400 library or an MDL-100 library. Fifty microliters of peptides at a 1 mM stock concentration in phosphate buffered saline were placed in wells of a 96 well oxygen sensor plate and dried in a reverse flow air hood overnight […].
Vitrogen-collagen-I was obtained from Cohesion (Palo Alto, Calif., Catalog No. FXP-019) and fibronectin was obtained from Sigma (Catalog No. F-0895). All other extracellular matrix (ECM) compounds were obtained from Becton Dickinson Labware, (Bedford, Mass.). Polylysine was obtained from Becton Dickinson Labware and RGDSP-rhodamine was from AnaSpec Inc. (San Jose, Calif.). Extracellular matrix components (ECM) or known peptides were used at the following stock concentrations:
Twenty-five microliters of stock concentrations of controls and 25 μl of phosphate buffered saline were placed in wells of a 96 well oxygen sensor plate and dried overnight as described above.
Cells grown on 96 well oxygen sensor plates treated as described above were monitored for growth using a Becton Dickinson oxygen biosensor. Growth was monitored at the following time points: 1 hours, 24 hours, 32 hours, 48 hours and 86 hours. Media was changed every three days. […]

[3] = 6 mM peptide in 1A media, day 12 or sooner, 1A media post-culture value subtracted

| Substance | Normalized Abs at 492 nm (relative PDGF level), MDL-400 Library [1, 3] | further results |
| --- | --- | --- |
| 16 (FKLVY; Synthetic peptide selected for biological activity) [Peptide 16] | 1.38 |  |
| 19 (FKKKQ; Synthetic peptide selected for biological activity) [Peptide 19] | 0.79 |  |
| 22 (FKKKK; Synthetic peptide selected for biological activity) [Peptide 22] | 0.59 |  |
| 27 (KKPQY; Synthetic peptide selected for biological activity) [Peptide 27] | 0.55 |  |
| 30 (KNQTY; Synthetic peptide selected for biological activity) [Peptide 30] | 0.50 |  |
| 31 (FKKKV; Synthetic peptide selected for biological activity) [Peptide 31] | 0.49 |  |
| 34 (HKNQT; Synthetic peptide selected for biological activity) [Peptide 34] | 0.42 |  |
| 37 (EKKQT; Synthetic peptide selected for biological activity) [Peptide 37] | 0.38 |  |
| 38 (EKKKK; Synthetic peptide selected for biological activity) [Peptide 38] | 0.37 |  |
| 43 (DGKKT; Synthetic peptide selected for biological activity) [Peptide 43] | 0.32 |  |
| 44 (KKPTT; Synthetic peptide selected for biological activity) [Peptide 44] | 0.31 |  |
| 46 (FKKMY; Synthetic peptide selected for biological activity) [Peptide 46] | 0.28 |  |
| 50 (DFFHK; Synthetic peptide selected for biological activity) [Peptide 50] | 0.25 |  |
| 51 (AKKKK; Synthetic peptide selected for biological activity) [Peptide 51] | 0.25 |  |
| 53 (AHKKK; Synthetic peptide selected for biological activity) [Peptide 53] | 0.22 |  |
| 56 (AKKKT; Synthetic peptide selected for biological activity) [Peptide 56] | 0.20 |  |
| 58 (HNPPY; Synthetic peptide selected for biological activity) [Peptide 58] | 0.58 |  |
| 60 (AADEG; Synthetic peptide selected for biological activity) [Peptide 60] | 0.45 |  |
| 63 (HHPST; Synthetic peptide selected for biological activity) [Peptide 63] | 0.33 |  |
| 65 (ADELN; Synthetic peptide selected for biological activity) [Peptide 65] | 0.23 |  |
| AFFFQ (Synthetic peptide selected for biological activity) [SEQ ID NO:12] | 0.43 |  |
| EEEMY (Synthetic peptide selected for biological activity) [SEQ ID NO:13] |  | Normalized Abs at 492 nm (relative PDGF level), Follow-Up Library [1, 3]: 1.37 |
| FKFIG (Synthetic peptide selected for biological activity) [SEQ ID NO:5] |  | Abs at 590 nm (relative oxygen consumption), MDL-400 Library ([2]; 86 hour time point, single peptide, 50 µl of 1 mM stock dried in well, value normalized to the well's initial reading): 2.27*; impact on MC3T3 growth (result in words) [2]: positive; also recorded: significant difference in growth; impact on MC3T3 growth (result in words) ([2]; listed as FKFIG): positive; effect on PDGF expression/accumulation in CHO cells (result in words) [1]: positive |
| KFIFG (Synthetic peptide selected for biological activity) [SEQ ID NO:45] |  | effect on PDGF expression/accumulation in CHO cells (result in words) [1]: positive |
